Measurements published in the supplement of paper PMC8024199.
± gives the standard deviation of the averaged measurements.

Assays:
Experiment in all cases: drug sensitivity score (DSS) (DSS score); higher = more sensitive (stronger growth inhibition); extreme values may be limits of the assay
[1] = system: Ba/F3 P210-BCR-ABL1 RUNX1-/- (mouse)
Procedure, shortened: (§1)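 A drug sensitivity score summarised each dose-response curve, with luminescence from CellTiter-Glo scaled between vehicle and positive-control wells. Values are the mean of two replicates. The cells were mouse Ba/F3 clones that were CRISPR/Cas9-edited at a target exon or were edited controls, exposed on pre-printed 384-well plates to a 528-compound library at five concentrations spanning a 10,000-fold range. Plates held 10,000 cells per well in RPMI with 10% FBS for 72 h at 37 °C and 5% CO2.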

[2] = system: Ba/F3 P210-BCR-ABL1 RUNX1-/mut (mouse)
Procedure, shortened: as §1

[3] = system: Ba/F3 P210-BCR-ABL1 RUNX1wt/wt control (mouse)
Procedure, shortened: as §1

Structure (SMILES) | drug sensitivity score [1] | drug sensitivity score [2] | drug sensitivity score [3]
CC/C(=C(\c1ccccc1)c1ccc(OCCN(C)C)cc1)c1ccccc1 [Tamoxifen] | 6.2 ± 1.6 | 7.5 ± 1.3 | 3.5 ± 0.28
COc1ccc2[nH]cc(/C=C3\C(=O)Nc4ccc(NC(=O)CCN5CCCCC5)cc43)c2c1 | 14.8 ± 2.5 | 15.2 ± 4.4 | 6.05 ± 1.1
CON(C)C(=O)N1N=C(c2cc(F)ccc2F)S[C@@]1(CCCN)c1ccccc1 [Filanesib] | 19.6 ± 2.2 | 14.95 ± 0.071 | 7.85 ± 0.35
O=C(c1ccc(OCCN2CCCCC2)cc1)c1c(-c2ccc(O)cc2)sc2cc(O)ccc12 [Raloxifene] | 5.4 ± 2.3 | 5.05 ± 3.3 | 3.7 ± 1.8
Cn1ncc(Cl)c1-c1cc(C(=O)N[C@H](CN)Cc2cccc(F)c2)sc1Cl [Afuresertib] | 1.05 ± 1.1 | 1.6 ± 2.3 | 0
NC(=O)Nc1cc(-c2cccc(F)c2)sc1C(=O)N[C@H]1CCCNC1 [AZD7762] | 9.8 ± 2 | 7.8 ± 2.1 | 7.1 ± 0.71
O=C(NC[C@H](O)CN1CCc2ccccc2C1)c1cc(NC2COC2)ncn1 | 7.8 ± 1.3 | 5.2 ± 3.5 | 0
C[C@H](Nc1ncnc2[nH]cnc12)c1cc2ccc(F)cc2nc1-c1ccccn1 [AMG319] | 0.15 ± 0.21 | 1.1 ± 1.6 | 0
COc1cc(C(=O)O)ccc1NC(=O)[C@@H]1N[C@@H](CC(C)(C)C)[C@](C#N)(c2ccc(Cl)cc2F)[C@H]1c1cccc(Cl)c1F [Idasanutlin] | 9.4 ± 13 | 8.5 ± 12 | 5.05 ± 0.21
Cc1cc(C)c(CNC(=O)c2cc(-c3ccc(CN4CCOCC4)cc3)cc3c2cnn3C2CCCC2)c(=O)[nH]1 [EPZ-5687] | 0.5 ± 0.71 | 0.9 ± 1.3 | 0
C[C@H]1C[C@@H](n2c(Nc3ccc(OC(F)(F)F)cc3)nc3cc(CCC(=O)O)ccc32)CC(C)(C)C1 | 0.8 ± 1.1 | 1.4 ± 2 | 0
CN(C)C[C@@H]1CCn2cc(c3ccccc32)C2=C(C(=O)NC2=O)c2cn(c3ccccc23)CCO1 [Ruboxistaurin] | 9.7 ± 0.28 | 9.25 ± 2.2 | 7.7 ± 0.99
COc1cc(N2CCC(N3CCN(C)CC3)CC2)ccc1Nc1ncnc(Nc2ccccc2S(=O)(=O)C(C)C)n1 [ASP3026] | 3.95 ± 1.6 | 3.9 ± 3.7 | 1.05 ± 0.21
CN(C)C(=N)NC(=N)N [Metformin] | 0 | 0 | 0
O=C(O)CNC(=O)c1c(O)c2ccccc2n(Cc2ccccc2)c1=O [IOX-2] | 0 | 0.3 ± 0.42 | 0
CC(C)C[C@H](NC(=O)CNC(=O)c1cc(Cl)ccc1Cl)B(O)O [Ixazomib] | 13.5 ± 2.4 | 8.95 ± 1.2 | 13.7 ± 1.4
C=CCn1c(=O)c2cnc(Nc3ccc(N4CCN(C)CC4)cc3)nc2n1-c1cccc(C(C)(C)O)n1 [AZD1775] | 22.8 ± 3.5 | 20.8 ± 1.5 | 19.1 ± 0.14
NC(=O)N1CCC(CC(=O)N2CCC([C@H]3c4ncc(Br)cc4CCc4cc(Cl)cc(Br)c43)CC2)CC1 [Lonafarnib] | 12.1 ± 17 | 13.8 ± 9.8 | 8.2 ± 0.14
CC(C)[C@H](C(=O)Nc1ccc(C(=O)NO)cc1)c1ccccc1 [AR-42] | 20.3 ± 0.85 | 17.9 ± 1.1 | 16.5 ± 0.14
CC(=O)c1c(C)c2cnc(Nc3ccc(N4CCNCC4)cn3)nc2n(C2CCCC2)c1=O [Palbociclib] | 11.4 ± 1.3 | 8.85 ± 1.1 | 2.25 ± 0.21
COc1cc(OC)cc(N(CCNC(C)C)c2ccc3ncc(-c4cnn(C)c4)nc3c2)c1 [Erdafitinib] | 1.5 ± 0.14 | 0 | 0
NC[C@@](O)(c1ccc(Cl)cc1)c1ccc(-c2cn[nH]c2)cc1 | 1.25 ± 1.8 | 0.05 ± 0.071 | 1.55 ± 0.78
CCCC(CCC)C(=O)O [Valproic acid] | 2.3 ± 0.28 | 0.75 ± 0.071 | 0

Structure (SMILES) | drug sensitivity score [1] | drug sensitivity score [2] | drug sensitivity score [3]
CC1=C2C[C@H]3[C@@H](CC[C@@H]4C[C@H](NS(C)(=O)=O)CC[C@@]43C)[C@@H]2CC[C@@]2(C1)O[C@@H]1C[C@H](C)CN[C@H]1[C@H]2C [Saridegib] | 2.3 ± 0.28 | 2.15 ± 3 | 0
Cn1ncnc1[C@H]1c2n[nH]c(=O)c3cc(F)cc(c23)N[C@@H]1c1ccc(F)cc1 [Talazoparib] | 15 ± 5.5 | 16.2 ± 5 | 2.7 ± 0.14
N#Cc1ccnc(N2C(=O)CC[C@H]2C(=O)N(c2cncc(F)c2)[C@H](C(=O)NC2CC(F)(F)C2)c2ccccc2Cl)c1 [Ivosidenib] | 0.3 ± 0.42 | 1.35 ± 1.9 | 0
COc1cc2c(Nc3ccc(Cl)c(Cl)c3F)ncnc2cc1OC[C@@H]1C[C@@H]2CN(C)C[C@@H]2C1 [Tesevatinib] | 0.55 ± 0.49 | 0.9 ± 1.3 | 0
Cc1nc(C(=O)NCC(=O)O)c(O)c2ccc(Oc3ccccc3)cc12 [Roxadustat] | 0.6 ± 0.85 | 0.95 ± 1.3 | 0
CCN(CC)CCNC(=O)c1c(C)[nH]c(/C=C2\C(=O)Nc3ccc(-c4csc(-c5ccccc5)n4)cc32)c1C [Amcasertib] | 5.95 ± 1.6 | 5.35 ± 7.6 | 0
Cc1nc(-c2cn3c(n2)-c2ccc(-c4cnn(C(C)(C)C(N)=O)c4)cc2OCC3)n(C(C)C)n1 [Taselisib] | 4.65 ± 0.49 | 3.1 ± 4.1 | 0.4 ± 0.57
CNC(=O)c1nn(C)c2c1C(C)(C)Cc1cnc(Nc3ccc(N4CCN(C)CC4)cc3)nc1-2 [Milciclib] | 20.9 ± 0.78 | 14.7 ± 0.85 | 10.8 ± 0.71
Cc1cc(Nc2ncnc3ccc(NC4=NC(C)(C)CO4)cc23)ccc1Oc1ccn2ncnc2c1 [Tucatinib] | 0.4 ± 0.57 | 0 | 0
CNC(=O)c1ccc2cc([C@@]3(O)CCn4cncc43)ccc2c1 [Orteronel] | 0 | 0 | 0
Cn1cc(C[C@@H](N)C(=O)O)c2ccccc21 [1-methyl-D-tryptophan] | 0 | 0 | 0
C=CC(=O)N1CCC(Oc2cc3c(Nc4ccc(Cl)c(Cl)c4F)ncnc3cc2OC)CC1 [Poziotinib] | 0 | 0 | 0
O=C(Nc1ccc2[nH]nc(-c3ccncc3)c2c1)[C@@H]1CCN(CC(=O)N2CCN(c3ccc(-c4ncccn4)cc3)CC2)C1 | 17.8 ± 1.6 | 10.7 ± 1.4 | 5.1 ± 1.3
Cc1nc(NC(=O)N2CCC[C@H]2C(N)=O)sc1-c1ccnc(C(C)(C)C(F)(F)F)c1 [Alpelisib] | 2.5 ± 0.57 | 3 ± 1.8 | 0.75 ± 1.1
O=c1ncn2nc(Sc3ccc(F)cc3F)ccc2c1-c1c(Cl)cccc1Cl [Neflamapimod] | 1.9 ± 0.71 | 0.85 ± 1.2 | 0
O=C(CCCCCCNC(=O)c1cnc(N(c2ccccc2)c2ccccc2)nc1)NO [Rocilinostat] | 10.2 ± 1.5 | 9.05 ± 2.2 | 6.25 ± 0.071
CC[C@@H](C(=O)[C@@H](C)[C@@H](O)[C@H](C)[C@@H]1O[C@@H]([C@@H](CC)C(=O)O)CC[C@@H]1C)[C@H]1O[C@]2(C=C[C@@H](O)[C@]3(CC[C@@](C)([C@H]4CC[C@](O)(CC)[C@H](C)O4)O3)O2)[C@H](C)C[C@@H]1C [Salinomycin] | 19.6 ± 7.6 | 17.6 ± 10 | 17 ± 8.3
CCC1=C[C@@H]2CN(C1)Cc1c([nH]c3ccccc13)[C@@](C(=O)OC)(c1cc3c(cc1OC)N(C)[C@H]1[C@@](O)(C(=O)OC)[C@H](OC(C)=O)[C@]4(CC)C=CCN5CC[C@]31[C@@H]54)C2 [Vinorelbine] | 38 ± 2.1 | 36.1 ± 1.1 | 19.1
Cc1nc2cccc(N)c2c(=O)n1C1CCC(=O)NC1=O (stereo not drawn) [CC122] | 0 | 0 | 0
O[C@H](C[C@H]1c2c(F)cccc2-c2cncn21)[C@H]1CC[C@H](O)CC1 [GDC-0919] | 0 | 0.05 ± 0.071 | 1.2 ± 0.28
CC(=O)OC[C@H]1O[C@@H]([S-])[C@H](OC(C)=O)[C@@H](OC(C)=O)[C@@H]1OC(C)=O.CCP(CC)CC.[Au+] [Auranofin] | 8.5 ± 0.85 | 6.15 ± 4.5 | 2.8 ± 0.71
CNC(=O)c1ccc(N2C(=S)N(c3ccc(C#N)c(C(F)(F)F)c3)C(=O)C2(C)C)cc1F [Enzalutamide] | 1.15 ± 1.6 | 1.05 ± 1.5 | 0.3 ± 0.14
CC1CCC(n2c3cnccc3c3cnc(Nc4ccc5c(n4)CCN(C(=O)CO)C5)nc32)CC1 (stereo not drawn) [AMG-925] | 4.2 ± 0.42 | 1.8 ± 2.1 | 0
